Experimental data as given in PubChem BioAssay AID1996.
In brackets after ≈: the same amount, converted by molar mass.

Details: buffer; pH 7.4; 200.0 µM

Going from `Cn1c(SCC(=O)NC2CCCC2)nnc1-c1ccccn1` to `O=C(COC(=O)/C=C/c1cccc(F)c1)NC1CCCC1`, the solubility kinetic falls from > 47.6 µg/mL to 7.8 µg/mL (≈ 26.8 µM).

`CC(C)(CO)NC(=S)NCc1ccco1` and `CCN(CC)CCCNC(=S)Nc1ccc(Br)cc1` cannot be ordered by solubility kinetic: > 34.2 µg/mL for the first, > 51.6 µg/mL for the second.

`COc1ccc(NC(=O)CN(C)C(=O)C2(c3ccccc3)CCCC2)cc1` and `COc1ccc(N(CC(=O)Nc2cccnc2)S(C)(=O)=O)cc1` cannot be ordered by solubility kinetic: > 55 µg/mL for the first, > 50.3 µg/mL for the second.

First: COc1ccccc1CNS(=O)(=O)c1cccs1
Second: COc1ccc(NS(=O)(=O)c2ccc(-c3ccccn3)s2)cc1
The solubility kinetic of the first is higher: > 42.5 µg/mL for the first, 0.8 µg/mL (≈ 2.31 µM) for the second.

First: CC(C)Oc1ccc(C(=O)Nc2ccc([N+](=O)[O-])cc2)cc1
Second: CC(C)c1ccc(NC(=O)C2CC2c2ccccc2)cc1 (stereo unspecified)
The solubility kinetic of the first is lower: < 0.3 µg/mL for the first, 12 µg/mL (≈ 43 µM) for the second.

`Cn1c(CCNC(=O)C2CCCCC2)nc2cc([N+](=O)[O-])ccc21` and `CN=C(c1ccc([N+](=O)[O-])cc1)N1CCCCC1` cannot be ordered by solubility kinetic: 44 µg/mL (≈ 133 µM) for the first, > 37.1 µg/mL for the second.

Compared with `Cc1cc(S(=O)(=O)NCc2ccc3c(c2)OCO3)ccc1F`, `Cc1cc(C)c(S(=O)(=O)c2cc(F)ccc2C)c(=O)[nH]1` is 3.5-fold lower in solubility kinetic: 46.8 µg/mL (≈ 145 µM) for the first, 13.3 µg/mL (≈ 45 µM) for the second.

Going from `CC(=O)Nc1ccc(NC(=O)CC(c2ccccc2)c2ccccc2)cc1` to `CC(OC(=O)CCCC(=O)Nc1ccccc1)C(=O)c1ccccc1` (stereo unspecified), the solubility kinetic rises from 2.1 µg/mL (≈ 5.86 µM) to 45.6 µg/mL (≈ 134 µM) (22-fold).

Going from `CCOC(=O)c1c(C)[nH]c(C(=O)COC(=O)c2ccco2)c1C` to `Cc1cc(C(=O)OCC(=O)Nc2ccc(F)cc2)c(C)n1C1CC1`, the solubility kinetic rises from 3.1 µg/mL (≈ 9.71 µM) to 6.2 µg/mL (≈ 18.8 µM) (2-fold).

Compared with `O=C(OCN1C(=O)c2ccccc2C1=O)c1cccc(OC(F)F)c1`, `O=C(COC(=O)CN1C(=O)c2ccccc2C1=O)Nc1ccccc1` is higher in solubility kinetic: 0.9 µg/mL (≈ 2.59 µM) for the first, > 50.7 µg/mL for the second.

First: O=c1[nH]c(-c2cccnc2)nc2sc(-c3ccccc3)cc12
Second: Cc1cccnc1Nc1nc(-c2ccccc2)cs1
The solubility kinetic of the first is 38-fold lower: 0.2 µg/mL (≈ 0.655 µM) for the first, 7.6 µg/mL (≈ 28.4 µM) for the second.

Going from `CN(C)S(=O)(=O)c1ccc(C(=O)OCC(=O)NC(=O)NC2CCCC2)cc1` to `CCOCC(=O)Nc1ccc(S(=O)(=O)NCC2CCCO2)cc1` (stereo unspecified), the solubility kinetic rises from 7.9 µg/mL (≈ 19.9 µM) to > 51.4 µg/mL.

Going from `O=S(=O)(Nc1ccccc1O)c1cccc2cccnc12` to `CC(C)C(=O)NC(c1ccc(Cl)cc1Cl)c1ccc2cccnc2c1O` (stereo unspecified), the solubility kinetic falls from 43 µg/mL (≈ 143 µM) to 2.8 µg/mL (≈ 7.19 µM) (15-fold).

`CCN1CCN(S(=O)(=O)Cc2ccccc2Cl)CC1` and `CC1CCN(C(=O)C2COc3ccccc3O2)CC1` (stereo unspecified) cannot be ordered by solubility kinetic: > 45.4 µg/mL for the first, > 39.2 µg/mL for the second.

`O=C(NN=C1CCCCCCC1)c1ccc(F)cc1` and `COC(=O)CNC(=O)C1CC(=O)N(CCc2ccc(F)cc2)C1` (stereo unspecified) cannot be ordered by solubility kinetic: > 39.3 µg/mL for the first, > 48.4 µg/mL for the second.

Compared with `CC1c2cc3c(cc2CCN1CC(=O)Nc1ccccc1)OCCCO3` (stereo unspecified), `CCc1cccc(NC(=O)C2CC2c2ccccc2)c1` (stereo unspecified) is 5.6-fold lower in solubility kinetic: 3.9 µg/mL (≈ 11.1 µM) for the first, 0.7 µg/mL (≈ 2.64 µM) for the second.

`O=C(CCCc1nc2ccccc2s1)NCc1cccnc1` and `O=C(COc1ccc2ccc(=O)oc2c1)NCc1ccccn1` cannot be ordered by solubility kinetic: > 46.7 µg/mL for the first, > 46.5 µg/mL for the second.

Going from `O=C(NC1CCCc2ccccc21)c1ccccc1OC(F)F` (stereo unspecified) to `CC(=O)c1c(-c2ccccc2)[nH]c2ccccc12`, the solubility kinetic falls from 15.5 µg/mL (≈ 48.8 µM) to 1.4 µg/mL (≈ 5.95 µM) (11-fold).

Going from `Cc1cc(Nc2ccc(Cl)cc2)nc(N2CCOCC2)n1` to `CNc1nc(C)c([N+](=O)[O-])c(Nc2ccc(OC)cc2)n1`, the solubility kinetic falls from 1.8 µg/mL (≈ 5.91 µM) to 0.5 µg/mL (≈ 1.73 µM) (3.6-fold).

Compared with `CCN(C(=O)C1CCCO1)c1ccccc1` (stereo unspecified), `C1=CCN(Cc2ccccc2)C1` is 6.1-fold lower in solubility kinetic: 25.2 µg/mL (≈ 115 µM) for the first, 4.1 µg/mL (≈ 25.7 µM) for the second.

Compared with `O=C1CN(C(=O)/C=C/c2ccccc2F)c2ccccc2N1`, `O=C1c2ccccc2-c2nc3ccccc3cc21` is lower in solubility kinetic: 12.9 µg/mL (≈ 43.5 µM) for the first, < 0.5 µg/mL for the second.

Compared with `Cn1c(=O)c2c(nc(SCc3ccc(F)cc3)n2C)n(C)c1=O`, `O=C(CSCc1ccc(F)cc1)NCc1cccs1` is 20-fold higher in solubility kinetic: 2 µg/mL (≈ 5.98 µM) for the first, 40.2 µg/mL (≈ 136 µM) for the second.

Going from `COc1ccc(N2CC2c2ccncc2)cc1` (stereo unspecified) to `CCOc1ccc(-c2nc(CCl)cs2)cc1.Cl`, the solubility kinetic falls from > 33.9 µg/mL to 8.5 µg/mL.

`CC1(O)CCN2C(=O)CCc3cccc1c32` (stereo unspecified) and `Fc1cccc2sc(N3CCCC3)nc12` are within 1.5-fold of each other in solubility kinetic: 19.3 µg/mL (≈ 88.8 µM) for the first, 17.4 µg/mL (≈ 78.3 µM) for the second.

Going from `CCc1c(C)nc(SCC(=O)N2CCCCC2CC)[nH]c1=O` (stereo unspecified) to `CC1(C)C2CCC1(CS(=O)(=O)N1CCCC1C(=O)O)C(=O)C2` (stereo unspecified), the solubility kinetic rises from 44.6 µg/mL (≈ 138 µM) to > 49.4 µg/mL.

`COc1ccc(OC)c(C(O)C2CCCCN2)c1.Cl` (stereo unspecified) and `Cc1[nH]c2ccccc2c1C(O)CN1CCC2(CC1)OCCO2` (stereo unspecified) cannot be ordered by solubility kinetic: > 43.2 µg/mL for the first, > 47.5 µg/mL for the second.

`O=C(CSc1nnc(C2CC2)n1C1CC1)c1cccs1` and `O=C(COC(=O)CSc1ccccc1)Nc1ccc(F)cc1F` cannot be ordered by solubility kinetic: > 45.8 µg/mL for the first, > 50.6 µg/mL for the second.

`Cc1cc(C)c(C)c(S(=O)(=O)NC(C(=O)O)C(C)C)c1C` (stereo unspecified) and `Cc1ccc(NC(=O)CS(=O)c2ccccc2N)c(C)c1` (stereo unspecified) cannot be ordered by solubility kinetic: > 47 µg/mL for the first, > 45.4 µg/mL for the second.

Going from `O=C1OC(c2ccc(Cl)cc2)=C/C1=C/c1cccnc1` to `N#CCc1ccc(OC(=O)Nc2ccccc2)cc1`, the solubility kinetic rises from 0.7 µg/mL (≈ 2.47 µM) to 36.4 µg/mL (≈ 144 µM) (52-fold).

Compared with `O=C(NCCc1c[nH]c2ccccc12)c1ccc(Br)o1`, `CC(C)c1ccc(NC2=CC(=O)CC(C)(C)C2)cc1` is 18-fold lower in solubility kinetic: 45.7 µg/mL (≈ 137 µM) for the first, 2.6 µg/mL (≈ 10.1 µM) for the second.

In the case of `COCCOC(=O)c1sc2nc[nH]c(=O)c2c1C`, the solubility kinetic is reported as > 40.2 µg/mL.
